Assay results reported in US8198317B2, “Methylenedioxy phenolic compounds and their use to treat disease” (The Ohio State University Research Foundation, priority 2008, dated 2012).

Columns and labels:
[1] = tested on: Watanabe Heritable Hyperlipidemic Rabbits (WHHL); assay: Morphometric analysis of atherosclerotic burden in WHHL rabbits; assay type: in vivo, rabbit; details: end of 12 weeks, H&E morphometry
Experimental: Segments of descending thoracic aorta were embedded in Optimal Cutting Temperature compound (Tissue-Tek, Sakura Finetek USA Inc, Torrance, Calif.) and frozen on dry ice. En face sections were then prepared. To analyze atherosclerotic burden, 8 sections (4 μm thick) were collected at intervals of 20 μm. After H&E staining, each section was digitized with a digital camera and analyzed using a microscope (Zeiss Axioskop with Spot I digital camera, Jena, Germany) with National Institutes of Health (NIH) Image software version 1.61. Results were expressed as mm^2. Morphometric assessment of plaque burden in the thoracic aorta at the end of 12 weeks corroborated the anti-atherosclerotic effects of INV-75 by MRI on the abdominal aorta. The summary of atherosclerotic burden in abdominal aorta of control and INV-75 groups of WHHL rabbits are presented. n=5/group. *, p<0.05 vs control animals, n=4, using un-paired t test. Approximately 60% reduction in atherosclerosis burden in WHHL rabbits compared to control group was observed (FIG. 9).

[2] = tested on: Watanabe Heritable Hyperlipidemic Rabbits (WHHL); assay: Immunohistochemistry and staining of WHHL rabbit aorta; assay type: in vivo
Experimental: Immunohistochemical staining was performed to assess inflammatory content using the primary antibodies (1:200 concentration) and a detection system (Immunoperoxidase Secondary Detection System; Chemicon International, Temecula, Calif.), and quantified with software (NIH Image) after digitization of the images with a camera system (Zeiss Axioskop with Spot I digital camera). Antibodies against CD68 were purchased from Santa Cruz Biotechnology Incorporated (Santa Cruz, Calif.). A polyclonal anti-α-Actin antibody was obtained from Upstate Cell Signaling Solutions (Lake Placid, N.Y.). T cell receptor β antibody was obtained from Biolegend (San Diego, Calif.). To quantify the staining, the mean density of 4 negative control (no primary antibody) sections was set as the threshold, and positive area was acquired by software. Results were finally normalized by the area subtended by the external elastic lamina to the luminal interface or the intimal-medial volume. The effects of INV-75 on macrophages and smooth muscle cells in comparison to control group were evaluated by CD68 and α-actin immunohistochemistry, respectively. INV-75 decreased the number of macrophages vs. controls and summary of whole groups is represented by bar diagram in FIG. 10 (n=4-5 animals/group). *p<0.05 vs control animals using unpaired t test). […] INV-75 increased the smooth muscle content (% of total area) vs controls and the combined results were represented as a bar diagram n=5/group (n=number of animals used per group). *p<0.05 vs control animals.
Lipid deposition in aorta was identified after total 14 weeks of treatment with drug, rabbits were sacrificed and abdominal aortas were fixed in 4% paraformaldehyde. The lipid deposition in aortic wall was then visualized by oil red staining. […] (FIG. 13).

SREBP-2 = assay: SREBP2 nuclear binding by EMSA in HepG2 cells; assay type: cell-based, human
Experimental: FIG. 5A is a graph showing in vitro time course of course of Sterol Regulatory and Binding Protein-2 (SREBP2) activity measurement with INV-75. HepG2 cells were stimulated with INV-75 (0.1 mM) for four hours and the binding activity of SREBP2 to nuclear proteins was measured by electrophoretic migration shift assay (EMSA). A total of three experiments were performed. *, p<0.01 by ANOVA compared to vehicle.
FIG. 5B is a graph showing the dose dependent effects of INV-75 on SREBP2 activity. HepG2 cells were stimulated with multiple concentrations of INV-75 for 1 hour and binding activity of SREBP2 in nuclear proteins was measured by electrophoretic migration shift assay (EMSA). A total of three experiments were performed. *, p<0.01 by ANOVA compared to vehicle.
A family of transcription factors designated SREBP (sterol regulatory element binding proteins) regulate synthesis of cholesterol and fatty acids. Of these, SREBP-2 mainly regulates cholesterol biosynthesis by alteration of cholesterol synthesis enzymes and LDL receptor expression (SREBP-1c mainly regulates fatty acid synthesis). […] The time course with this dose and dose dependence was analyzed. Next we assessed the expression of both precursor and mature form of SREBP-2 in the cytoplasm by western analysis. Both time course and dose dependence of mature form of SREBP-2 was analyzed.

Individuals = assay: Treatment of inflammatory arthritis (Example 26); assay type: in vivo, human; details: oral, 6 months
From the text: Individuals with rheumatoid arthritis, psoriatic arthritis and systemic lupus erythematosis suffer from recurrent bouts of inflammatory arthritis. They are usually on treatments such as non-steroidal agents such as cyclooxygenase inhibitors, anti-TNFα treatments and other types of immunotherapy. In addition to these treatments they will also receive an acceptable dose of a composition comprising a compound of the present invention in an acceptable carrier orally chronically for durations in excess of 6 months. In one study, 3,4-methylenedioxy-6-nitrophenyl acetate (INV 75) is administered to these individuals. The patients undergo an assessment of joint pains and inflammatory markers such as C-reactive protein (CRP) and erythrocyte sedimentation rate.

[3] = tested on: Watanabe Heritable Hyperlipidemic Rabbits (WHHL); assay: Lucigenin chemiluminescence for NADPH derived superoxide in WHHL aortic lysates; assay type: in vivo, rabbit; details: vs control
Experimental: Oxidative stress has been implicated in atherosclerosis. Superoxide (O2^•−) derived from NADPH could potentially trigger a free radical chain reaction which could potentially catalyze atherosclerotic plaque formation. Rabbit aorta was homogenized in PBS, and the protein concentration was adjusted to 5 μg/μl. 20 ul/well of cell lysates were plated on a 96-well microplate in Kreps-Hepes Buffer (pH=7.4; initially gassed with 95% O2, and 5% CO2). The baseline O2^•− production was measured with 5 μM Lucigenin. NADPH induced O2^•− production was measured by adding NADPH (100 μM). Measurements were performed with Berthold Luminometer LB 960. Luminometer settings were 0.1 s measurement and 30s kinetics.

## CC(=O)Oc1cc2c(cc1[N+](=O)[O-])OCO2 [INV-75, 3,4-methylenedioxy-6-nitrophenyl acetate]
[1]
  reduction in atherosclerosis burden compared to control group: Approximately 60%
[2]; WHHL abdominal aorta, vs control group
  collagen content (Masson's trichrome): reduction
[2]; WHHL abdominal aorta, vs controls
  lipid component (Oil Red O): decreased
[2]; WHHL aorta, vs controls
  number of macrophages (CD68): decreased
  smooth muscle content (% of total area, α-actin): increased
SREBP-2; HepG2, 0.1 mM
  time to increased nuclear binding of SREBP-2: < 1 h
SREBP-2; HepG2, 1 hour
  dose effective in inducing translocation of SREBP-2 to the nucleus: ≥ 100 nM
Individuals
  joint pains and markers of inflammation: marked improvement
[3]
  basal and stimulated superoxide production in aortic tissue lysates: lower
